Reference: US5925369A, “Bis alkanoyl esters of carnitine having bactericidal, fungicidal and antiprotozoal activity” (priority 1996, dated 1999)
Like-named read-outs stand apart in the source and are kept apart here.

Experiments:
Format in all cases: cell-based
Enterobacter cloacae = assay: MIC on Gram negative bacteria; conditions: Enterobacter cloacae SG 3 II, clinical isolate; read-out: Minimal Inhibitory Concentration
Method: (§1) Bacterial suspensions are prepared from an overnight culture in Mueller-Hinton broth and are adjusted, in the same medium, to a final concentration of 5.0×10^4 cells/ml in each well of a 96-well microtiter plate. Substance dilutions (0.3 log) in Mueller-Hinton broth are added to the suspensions in order to have a range of final concentrations from 0.19 to 100 mcg/ml.
(§2) Microtiters are then incubated at 37° C. for 18 hours. (See L. D. THRUPP, Susceptibility testing of antibiotics in liquid media, in: Antibiotics in laboratory medicine. V. LORIAN Ed., II edition, 4, 93-150, Williams & Wilkins, Baltimora, Md. 21202 U.S.A.).

[1] = tested on: E. coli (Escherichia coli); assay: MIC on Gram negative bacteria; conditions: read-out: Minimal Inhibitory Concentration
Method: as §1, §2

S. typhimurium = assay: MIC on Gram negative bacteria; conditions: Salmonella enterica; S. typhimurium DS, lab collection; read-out: Minimal Inhibitory Concentration
Method: as §1, §2

Pseudomonas aeruginosa = assay: MIC on Gram negative bacteria; conditions: Pseudomonas aeruginosa IDI 3530, clinical isolate (ulcer); read-out: Minimal Inhibitory Concentration
Method: as §1, §2

Proteus sp. = assay: MIC on Gram negative bacteria; conditions: Proteus sp. SG 9 II, clinical isolate; read-out: Minimal Inhibitory Concentration
Method: as §1, §2

P. vulgaris = assay: MIC on Gram negative bacteria; conditions: Proteus vulgaris; P. vulgaris UM, lab collection; read-out: Minimal Inhibitory Concentration
Method: as §1, §2

Klebsiella pneumoniae = assay: MIC on Gram negative bacteria; conditions: Klebsiella pneumoniae SG 5 II, clinical isolate; read-out: Minimal Inhibitory Concentration
Method: as §1, §2

K. oxytoca = assay: MIC on Gram negative bacteria; conditions: Klebsiella oxytoca; K. oxytoca 552, lab collection; read-out: Minimal Inhibitory Concentration
Method: as §1, §2

Gram negative bacteria = assay: MIC on Gram negative bacteria (all strains); conditions: 5 strains
Method: as §1, §2

Tr. rubrum = assay: MIC on dermatophytes; conditions: Trichophyton rubrum, read-out: Minimal Inhibitory Concentration
Method: (§3) Mycelium fragments, micro and macroaleuriospores are harvested from 7-day fungal cultures grown at 30 ° C. in Potato Dextrose agar by washing them with Sabouraud broth and 0.5% Tween 80. After a coarse filtration and washing, the fungal suspension is resuspended in Yeast Nitrogen Base supplemented with asparagine and glucose (YNBs) to yield a final concentration of 1.0×10^5 infective units/ml in a microtiter plate. The substances (0.3 log dilutions in Y.N.B.s.) are added to the fungal suspensions in order to generate a range of final concentrations from 0.19 to 100 mcg/ml. The microtiter plates are then incubated at 30° C. for 96-120 hours.

Microsporum canis = assay: MIC on dermatophytes; conditions: read-out: Minimal Inhibitory Concentration
Method: as §3

Tr. mentagrophytes = assay: MIC on dermatophytes; conditions: Trichophyton mentagrophytes, read-out: Minimal Inhibitory Concentration
Method: as §3

Epidermoph. floccosum = assay: MIC on dermatophytes; conditions: read-out: Minimal Inhibitory Concentration
Method: as §3

Tr. quinckeanum = assay: MIC on dermatophytes; conditions: Tr. quinckeanum NCPF 309, lab collection; read-out: Minimal Inhibitory Concentration
Method: as §3

Eubacterium lentum = assay: MIC on anaerobic bacteria; conditions: Eggerthella lenta; Eubacterium lentum IDI 3502, anaerobic, Gram positive clinical isolate (suppurative wound); read-out: Minimal Inhibitory Concentration
Method: (§4) Bacteria from cultures in […].) medium on Petri dishes, grown overnight at 35° C. in an anaerobic jar, were resuspended in Brucella broth. The suspensions were adjusted to 1.0×10^8 cells/ml and distributed (0.2 ml/well) in microtiter plates (96-well U-bottomed plate). At the same time, 0.3 log dilutions of the substances are mixed with W. C. agar medium in four-sectioned Petri dishes, which are then seeded with the bacterial suspension by means of a multipoint inoculator (1.0×10^5 cells/spot). The plates are then incubated at 35° C. for 48 hours in an anaerobic jar) (See J. E. ROSENBLATT, Antimicrobial susceptibility testing of anaerobes, in Antibiotics in laboratory medicine. V. LORIAN Ed., II edition, 6, 159-180, Williams & Wilkins, Baltimora, Md 21202 U.S.A.).

Propionibacterium acnes = assay: MIC on anaerobic bacteria; conditions: Cutibacterium acnes; Propionibacterium acnes IDI 3482, anaerobic, Gram positive clinical isolate (suppurative acne); read-out: Minimal Inhibitory Concentration
Method: as §4

Bacteroides fragilis = assay: MIC on anaerobic bacteria; conditions: ATCC25285; Bacteroides fragilis ATCC 25285, anaerobic, Gram negative, lab collection; read-out: Minimal Inhibitory Concentration
Method: as §4

[2] = Escherichia coli SG 4 II, clinical isolate
[3] = Tr. rubrum IDI D 0222, clinical isolate (onychomycosis, left and right big toes)
[4] = Tr. rubrum IDI D 0252, clinical isolate (impetigo, left arm; prior Rifocin)
[5] = Tr. rubrum IDI D 0261, clinical isolate (dyshidrotic eczema, right foot)
[6] = Tr. rubrum IDI D 1017, clinical isolate (onychomycosis, right big toe; prior Azolmen)
[7] = Tr. rubrum IDI D 1150, clinical isolate (epidermophytosis; prior Gentalyn)
[8] = Tr. rubrum IDI D 1155, clinical isolate
[9] = Tr. rubrum SG 13 III, clinical isolate (Tinea pedis)
[10] = Microsporum canis IDI D 0238, clinical isolate (tricophytosis, right arm; prior Nerisona)
[11] = Microsporum canis IDI D 1011, clinical isolate (eczema, neck; prior Gentalyn and cortisone)
[12] = Microsporum canis IDI D 1123, clinical isolate (epidermophytosis, back; prior Gentalyn)
[13] = Microsporum canis IMM 3868, lab collection
[14] = Tr. mentagrophytes IDI D 1027, clinical isolate (impetiginous eczema, chin)
[15] = Tr. mentagrophytes IDI D 1049, clinical isolate
[16] = Tr. mentagrophytes IDI D 1101, clinical isolate (epidermatomycosis, face)
[17] = Tr. mentagrophytes SG 3 I, clinical isolate (Tinea pedis)
[18] = Tr. mentagrophytes SG 4 II, clinical isolate (Tinea cruris)
[19] = Tr. mentagrophytes SG 5 III, clinical isolate (Tinea pedis)
[20] = Tr. mentagrophytes SG 8 II, clinical isolate (Tinea cruris)
[21] = Epidermoph. floccosum IDI D 0011, clinical isolate (epidermophytosis, foot interdigital)
[22] = Epidermoph. floccosum SG 3 III, clinical isolate
[23] = Epidermoph. floccosum SG 6 II, clinical isolate (Tinea pedis)

Which results are given for `CCCCCCCCCCCOC(=O)C[C@H](C[N+](C)(C)C)OC(=O)CC(C)C` [ST 1103, isovaleryl L-carnitine undecyl ester methanesulfonate, reference compound]?
MIC (Enterobacter cloacae): 25 µg/mL; MIC ([1]; E. coli 92 F, lab collection): 25 µg/mL; MIC [1, 2]: 25 µg/mL; MIC (S. typhimurium): 25 µg/mL; MIC (Pseudomonas aeruginosa): 25 µg/mL; MIC (Proteus sp.): 50 µg/mL; MIC (P. vulgaris): 50 µg/mL; MIC (Klebsiella pneumoniae): 50 µg/mL; MIC (K. oxytoca): 12.5 µg/mL; MIC (Gram negative bacteria; clinical isolates): 35 µg/mL; MIC (Gram negative bacteria; lab collection): 27.5 µg/mL; MIC (Tr. rubrum; [3]): 12.5 µg/mL; MIC (Tr. rubrum; [4]): 25 µg/mL; MIC (Tr. rubrum; [5]): 12.5 µg/mL; MIC (Tr. rubrum; [6]): 12.5 µg/mL; MIC (Tr. rubrum; [7]): 12.5 µg/mL; MIC (Tr. rubrum; [8]): 3.12 µg/mL; MIC (Tr. rubrum; [9]): 12.5 µg/mL; MIC (Microsporum canis; [10]): 25 µg/mL; MIC (Microsporum canis; [11]): 12.5 µg/mL; MIC (Microsporum canis; [12]): 12.5 µg/mL; MIC (Microsporum canis; [13]): 12.5 µg/mL; MIC (Tr. mentagrophytes; [14]): 12.5 µg/mL; MIC (Tr. mentagrophytes; [15]): 12.5 µg/mL; MIC (Tr. mentagrophytes; [16]): 12.5 µg/mL; MIC (Tr. mentagrophytes; [17]): 12.5 µg/mL; MIC (Tr. mentagrophytes; [18]): 12.5 µg/mL; MIC (Tr. mentagrophytes; [19]): 12.5 µg/mL; MIC (Tr. mentagrophytes; [20]): 12.5 µg/mL; MIC (Epidermoph. floccosum; [21]): 12.5 µg/mL; MIC (Epidermoph. floccosum; [22]): 25 µg/mL; MIC (Epidermoph. floccosum; [23]): 12.5 µg/mL; MIC (Tr. quinckeanum): 6.25 µg/mL; MIC (Eubacterium lentum): 3.12 µg/mL; MIC (Propionibacterium acnes): 6.25 µg/mL; MIC (Bacteroides fragilis): 25 µg/mL

Which results are given for `CCCCCCCCCCC(=O)O[C@H](CC(=O)OCc1ccc(COC(=O)C[C@H](C[N+](C)(C)C)OC(=O)CCCCCCCCCC)cc1)C[N+](C)(C)C` [ST 1226, bis(undecanoyl L-carnitine chloride)p-xylilene diester]?
MIC (Enterobacter cloacae): 12.5 µg/mL; MIC ([1]; E. coli 92 F, lab collection): 25 µg/mL; MIC [1, 2]: 12.5 µg/mL; MIC (S. typhimurium): 25 µg/mL; MIC (Pseudomonas aeruginosa): 50 µg/mL; MIC (Proteus sp.): 50 µg/mL; MIC (P. vulgaris): 50 µg/mL; MIC (Klebsiella pneumoniae): 50 µg/mL; MIC (K. oxytoca): 25 µg/mL; MIC (Gram negative bacteria; clinical isolates): 35 µg/mL; MIC (Gram negative bacteria; lab collection): 26.2 µg/mL; MIC (Tr. rubrum; [3]): 1.56 µg/mL; MIC (Tr. rubrum; [4]): 1.56 µg/mL; MIC (Tr. rubrum; [5]): 1.56 µg/mL; MIC (Tr. rubrum; [6]): 1.56 µg/mL; MIC (Tr. rubrum; [7]): 1.56 µg/mL; MIC (Tr. rubrum; [8]): 1.56 µg/mL; MIC (Tr. rubrum; [9]): 1.56 µg/mL; MIC (Microsporum canis; [10]): 12.5 µg/mL; MIC (Microsporum canis; [11]): 3.12 µg/mL; MIC (Microsporum canis; [12]): 1.56 µg/mL; MIC (Microsporum canis; [13]): 1.56 µg/mL; MIC (Tr. mentagrophytes; [14]): 3.12 µg/mL; MIC (Tr. mentagrophytes; [15]): 1.56 µg/mL; MIC (Tr. mentagrophytes; [16]): 1.56 µg/mL; MIC (Tr. mentagrophytes; [17]): 1.56 µg/mL; MIC (Tr. mentagrophytes; [18]): 1.56 µg/mL; MIC (Tr. mentagrophytes; [19]): 3.12 µg/mL; MIC (Tr. mentagrophytes; [20]): 1.56 µg/mL; MIC (Epidermoph. floccosum; [21]): 12.5 µg/mL; MIC (Epidermoph. floccosum; [22]): 6.25 µg/mL; MIC (Epidermoph. floccosum; [23]): 6.25 µg/mL; MIC (Tr. quinckeanum): 1.56 µg/mL; MIC (Eubacterium lentum): 6.25 µg/mL; MIC (Propionibacterium acnes): 6.25 µg/mL; MIC (Bacteroides fragilis): 12.5 µg/mL
